In US11197477B2, “Aqueous capsule suspension concentrates based on 2-[(2,4-dichlorophenyl)methyl]-4,4′-dimethyl-3-isoxazolidinone” (priority 2016, dated 2021):

What was measured:
[1] = Solubility of the active ingredient in Solvesso 200 ND; assay type: physicochemical; details: at room temperature; at higher concentrations the active ingredient crystallizes out in the capsule
Text: At higher concentrations, the active ingredient crystallizes out in the capsule.

[2] = cited from earlier work

CC1(C)CON(Cc2ccc(Cl)cc2Cl)C1=O [DCPMI, 2-[(2,4-dichlorophenyl)methyl]-4,4′-dimethyl-3-isoxazolidinone]
solubility of the active ingredient in Solvesso 200 ND [1]: 35 % by weight
water solubility [2]: 39.5 ppm

CC1(C)CON(Cc2ccccc2Cl)C1=O [clomazone, 2-(2-chlorobenzyl)-4,4-dimethyl-1,2-oxazolidin-3-one]
water solubility [2]: 1000 ppm
